Experimental data: the NIST ThermoML archive (doi:10.1016/j.fluid.2013.07.015)
Numbers after ± are expanded uncertainties.

Assay: not given
Details: 293.15 K; 101.33 kPa; Liquid; Vibrating tube method

mass density [kg/m3] | Compound
999.9 ± 0.24 | O [water]
1044.3 ± 0.96 | CC(=O)O [acetic acid]
881.3 ± 0.74 | CCCCCCC(=O)OCC [ethyl heptanoate]
1218.5 ± 1.4 | O=CO [formic acid]

Same assay, conditions: Liquid; Closed cell (Static) method

Normal boiling temperature [°C] | Compound
100.1 ± 1 | O [water]
117.1 ± 1.1 | CC(=O)O [acetic acid]
187.2 ± 1.1 | CCCCCCC(=O)OCC [ethyl heptanoate]
101.1 ± 1.1 | O=CO [formic acid]

Assay: refractive index (Na D-line) (dimensionless)
Details: 298.15 K; 101.33 kPa; Liquid; Standard Abbe refractometry

refractive index | Compound
1.33244 ± 0.00033 | O [water]
1.37104 ± 0.00052 | CC(=O)O [acetic acid]
1.41123 ± 0.00052 | CCCCCCC(=O)OCC [ethyl heptanoate]
1.3721 ± 0.00052 | O=CO [formic acid]
